Reference: paper PMC3785825 (Journal of the Royal Society Interface, 2013)
No end group written: not given here.

Experiments:
CGRP receptors = settings: double alanine mutant R^11AR^18A; cited from earlier work
Excerpt: The loop conformations spanned a large proportion of the space available to ECL2 (figure 4a). […] ECL2 forms an extended loop; this conformation is often seen as two antiparallel beta-strands in all peptide GPCRs for which structures are available, creating a large interface for peptide–receptor contacts. Here, we re-interpret seve ...

[1] = tested on: CLR A273L/RAMP1 (CGRP receptor); assay: AM-stimulated cAMP (alphascreen), A273L mutant; format: cell-based, human; settings: residue A273 (mutated to leucine); effect of mutation on AM
Excerpt: (§1) Curve fitting was done with […]
(§2) To explore the effects of the above mutants further, their ability to respond to AM through cAMP production was subsequently investigated. […] There was especially good agreement between the two agonists for the central area of functional importance ranging from D280 to T288. […] The effect of mutations at the N- and C-termini of ECL2 was more variable between the two peptides.

[2] = tested on: CLR R274A/RAMP1 (CGRP receptor); assay: AM-stimulated cAMP (alphascreen), R274A mutant; format: cell-based, human
Excerpt: as §1, §2

[3] = tested on: CLR D280A/RAMP1 (CGRP receptor); assay: AM-stimulated cAMP (alphascreen), D280A mutant; format: cell-based, human
Excerpt: as §1, §2

[4] = tested on: CLR W283A/RAMP1 (CGRP receptor); assay: AM-stimulated cAMP (alphascreen), W283A mutant; format: cell-based, human
Excerpt: as §1, §2

[5] = tested on: CLR I284A/RAMP1 (CGRP receptor); assay: AM-stimulated cAMP (alphascreen), I284A mutant; format: cell-based, human; settings: residue I284; effect of alanine mutation on AM
Excerpt: as §1, §2

[6] = tested on: CLR S285A/RAMP1 (CGRP receptor); assay: AM-stimulated cAMP (alphascreen), S285A mutant; format: cell-based, human; settings: residue S285; effect of alanine mutation on AM
Excerpt: as §1, §2

[7] = tested on: CLR T288A/RAMP1 (CGRP receptor); assay: AM-stimulated cAMP (alphascreen), T288A mutant; format: cell-based, human; settings: residue T288; effect of alanine mutation on AM
Excerpt: as §1, §2

[8] = tested on: CLR Y277A/RAMP1 (CGRP receptor); assay: AM-stimulated cAMP (alphascreen), Y277A mutant; format: cell-based, human; settings: Cos 7 cells
Excerpt: as §1, §2

[9] = tested on: CLR Y278A/RAMP1 (CGRP receptor); assay: AM-stimulated cAMP (alphascreen), Y278A mutant; format: cell-based, human; settings: Cos 7 cells
Excerpt: as §1, §2

[10] = tested on: CLR L290A/RAMP1 (CGRP receptor); assay: AM-stimulated cAMP (alphascreen), L290A mutant; format: cell-based, human; settings: Cos 7 cells
Excerpt: as §1, §2

[11] = tested on: CLR L291A/RAMP1 (CGRP receptor); assay: AM-stimulated cAMP (alphascreen), L291A mutant; format: cell-based, human; settings: Cos 7 cells
Excerpt: as §1, §2

[12] = tested on: CLR ECL2 mutants with human RAMP1; assay: AM-stimulated cAMP (alphascreen), ECL2 alanine scan; format: cell-based; settings: some mutants (not given); Cos 7 cells
Excerpt: as §1, §2

CGRP receptor = settings: AM at the CGRP receptor versus CGRP; cited from earlier work

Substance: R^11AR^18A: double alanine mutant of CGRP, literature (ACDTATCVTHALAGLLSASGGVVKNNFVPTNVGSKAF; not fully specified; ends and bridges not checked; UniProt P06881 83-119, looked up, variant R11A R18A)
- reduction in affinity (CGRP receptors): 100 fold

Substance: adrenomedullin [AM]
- AM effect [1]: √
- cAMP response / Emax ([2]; R274A, Cos 7 cells): so low that an Emax could not be reliably determined
- AM effect ([2]; residue R274, effect of alanine mutation on AM): √
- cAMP response / Emax ([3]; D280A, Cos 7 cells): so low that an Emax could not be reliably determined
- AM effect ([3]; residue D280, effect of alanine mutation on AM): √
- cAMP response / Emax ([4]; W283A, Cos 7 cells): so low that an Emax could not be reliably determined
- AM effect ([4]; residue W283, effect of alanine mutation on AM): √
- AM effect [5]: √
- AM effect [6]: √
- AM effect [7]: √
- effect on pEC50 [8]: did not show AM-mediated effects on pEC50
- reduction in maximal cAMP response [8]: approximately 25%
- effect on pEC50 [9]: did not show AM-mediated effects on pEC50
- reduction in maximal cAMP response [9]: approximately 25%
- potency versus WT [10]: not significantly affected
- potency versus WT [11]: not significantly affected
- activation of the receptor [12]: impossible to measure any activation of the receptor
- affinity, folds less than that for CGRP (CGRP receptor): approximately 10 folds
